Experiment in all cases: relative viability (nuclei count vs DMSO), 5 days (fraction); higher = more cells survive
Compound in the assay “AZ628 + Crizotinib”: CC1=C(C=C(C=C1)NC(=O)C2=CC(=CC=C2)C(C)(C)C#N)NC3=CC4=C(C=C3)N=CN(C4=O)C [AZ628] + C[C@@H](Oc1cc(-c2cnn(C3CCNCC3)c2)cnc1N)c1c(Cl)ccc(F)c1Cl [Crizotinib] (partner 1 µM)
Put shortly:
(§1)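 Lung cancer cell lines in 1536-well plates got either a single drug or a fixed anchor-drug dose together with five library-drug doses (not always all listed) in √10 steps, by pin tool, on the day after seeding. Nuclei were counted after 5 days, and relative viability is the treated-to-vehicle ratio of nuclei counts. Values are medians of duplicate plates.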

Compound in assay [1]: C[As](C)SC[C@H](NC(=O)CC[C@H](N)C(=O)O)C(=O)NCC(=O)O [Darinaparsin] + C[C@@H](Oc1cc(-c2cnn(C3CCNCC3)c2)cnc1N)c1c(Cl)ccc(F)c1Cl [Crizotinib] (partner 1 µM)
An outline of the steps:
as §1

Compound in assay [2]: C[As](C)SC[C@H](NC(=O)CC[C@H](N)C(=O)O)C(=O)NCC(=O)O [Darinaparsin] + Nc1nc2[nH]cc(CCc3ccc(C(=O)N[C@@H](CCC(=O)O)C(=O)O)cc3)c2c(=O)[nH]1 [Pemetrexed] (partner 0.2 µM)
An outline of the steps:
as §1

Compound in assay [3]: C[As](C)SC[C@H](NC(=O)CC[C@H](N)C(=O)O)C(=O)NCC(=O)O [Darinaparsin] + CCNC(=O)c1noc(-c2cc(C(C)C)c(O)cc2O)c1-c1ccc(CN2CCOCC2)cc1 [Luminespib] (partner 0.01 µM)
Put shortly:
as §1

This passage reports relative viability results from the supplement of paper PMC10307832.

Regarding SK-LU-1, the relative viability with AZ628 + Crizotinib (first compound 0.08 µM) amounted to 0.699; in the assay with AZ628 + Crizotinib (first compound 0.253 µM), 0.874; with AZ628 + Crizotinib (first compound 0.8 µM), 0.778; in the assay with AZ628 + Crizotinib (first compound 2.53 µM), 0.792; in the assay with AZ628 + Crizotinib (first compound 8 µM), 0.885; in assay [1] (first compound 0.08 µM) it was 1.15. Besides, the relative viability came to 1.06 in assay [1] (first compound 0.8 µM); 0.669 in assay [1] (first compound 2.53 µM); 0.946 in assay [1] (first compound 8 µM); 1.21 in assay [2] (first compound 0.08 µM); 0.942 in assay [2] (first compound 0.8 µM); 0.787 in assay [2] (first compound 2.53 µM). The relative viability in assay [2] (first compound 8 µM) came to 1.18; in assay [3] (first compound 0.08 µM), 0.203; in assay [3] (first compound 0.8 µM), 0.182; in assay [3] (first compound 2.53 µM), 0.214; in assay [3] (first compound 8 µM) it was 0.169.
Regarding SK-MES-1, the relative viability came out at 0.953 with AZ628 + Crizotinib (first compound 0.08 µM); 0.93 with AZ628 + Crizotinib (first compound 0.253 µM); 1.08 with AZ628 + Crizotinib (first compound 0.8 µM); 1.15 with AZ628 + Crizotinib (first compound 2.53 µM); 0.882 with AZ628 + Crizotinib (first compound 8 µM); 1.19 in assay [1] (first compound 0.08 µM). The relative viability stood at 1.04 in assay [1] (first compound 0.8 µM); 0.838 in assay [1] (first compound 2.53 µM); 1.11 in assay [1] (first compound 8 µM); 1.17 in assay [2] (first compound 0.08 µM); 0.924 in assay [2] (first compound 0.8 µM); 0.924 in assay [2] (first compound 2.53 µM). The relative viability in assay [2] (first compound 8 µM) was found to be 1.12; in assay [3] (first compound 0.08 µM), 1.19; in assay [3] (first compound 0.8 µM), 0.691; in assay [3] (first compound 2.53 µM), 0.88; in assay [3] (first compound 8 µM), 0.864.
Regarding SW 1573, the relative viability with AZ628 + Crizotinib (first compound 0.08 µM) turned out to be 0.664; with AZ628 + Crizotinib (first compound 0.253 µM) it was 0.587; with AZ628 + Crizotinib (first compound 0.8 µM) it was 0.707; in the assay with AZ628 + Crizotinib (first compound 2.53 µM), 0.598; in the assay with AZ628 + Crizotinib (first compound 8 µM), 0.425; in assay [1] (first compound 0.08 µM), 1.13. The relative viability was 0.711 in assay [1] (first compound 0.8 µM); 0.668 in assay [1] (first compound 2.53 µM); 0.851 in assay [1] (first compound 8 µM); 1 in assay [2] (first compound 0.08 µM); 0.84 in assay [2] (first compound 0.8 µM); 0.815 in assay [2] (first compound 2.53 µM). The relative viability in assay [2] (first compound 8 µM) is 0.939; in assay [3] (first compound 0.08 µM), 0.23; in assay [3] (first compound 0.8 µM), 0.364; in assay [3] (first compound 2.53 µM), 0.302; in assay [3] (first compound 8 µM) it was 0.249.
Consider UMC-11, for which the relative viability came to 0.578 in the assay with AZ628 + Crizotinib (first compound 0.08 µM); 0.572 in the assay with AZ628 + Crizotinib (first compound 0.253 µM); 0.684 in the assay with AZ628 + Crizotinib (first compound 0.8 µM); 0.542 in the assay with AZ628 + Crizotinib (first compound 2.53 µM); 0.781 with AZ628 + Crizotinib (first compound 8 µM); 0.678 in assay [1] (first compound 0.08 µM). The relative viability in assay [1] (first compound 0.8 µM) turned out to be 0.577; in assay [1] (first compound 2.53 µM) it was 0.407; in assay [1] (first compound 8 µM) it was 0.559; in assay [2] (first compound 0.08 µM), 0.884; in assay [2] (first compound 0.8 µM), 0.863; in assay [2] (first compound 2.53 µM), 0.778. Moreover, the relative viability in assay [2] (first compound 8 µM) turned out to be 0.878; in assay [3] (first compound 0.08 µM), 1.16; in assay [3] (first compound 0.8 µM) it was 0.994; in assay [3] (first compound 2.53 µM), 1.08; in assay [3] (first compound 8 µM), 1.22.
